The structures appear in SMILES notation. In brackets after ≈: the same amount, converted by molar mass.

The subject of the test is Mastocarcinoma Cells MCF-7. Put plainly: In vitro antitumor effect on mastocarcinoma cells MCF-7 (Methylene Blue staining, proliferation inhibition). The class given is cell-based. The settings on record: MCF-7 cells, 3 days culture with test compound, RPMI 1640 with 10% serum, Methylene Blue absorbance; for IC50: Homo sapiens, MCF7, 72 h, read-out: IC50 value (50% cytostatic concentration). How it is done:
In Vitro Antitumor Effect on Mastocarcinoma Cells MCF-7
By the use of RPMI 1640 medium (Asahi Tekunogurasu Co., Ltd.) containing 10% serum, 2,000 MCF-7 cells were seeded into a 96-well plate. The cells were cultured for 24 hours under conditions of 37° C. and 5% CO2/95% air, and then a test compound was added thereto, followed by culturing for another 3 days. Cells were stained with a 0.05% Methylene Blue solution and absorbance at 660 nm was measured with a microtiter plate reader (Benchmark Plus, mfd. by BIO RAD Laboratories Inc.). The proliferation inhibition rate was calculated by the following equation and the 50% cytostatic concentration was determined from a dose-response curve. Proliferation inhibition rate=((absorbance for control group−absorbance for drug-treated group)/absorbance for control group))×100

`CCOCC(=O)OC1CC(C)Cc2nnc(-c3cccc(C(F)(F)F)c3)cc21` (centres unmarked) [Compound No. 13, 5-ethoxyacetyloxy-7-methyl-3-(3-trifluoromethylphenyl)-5,6,7,8-tetrahydrocinnoline]: the IC50 amounted to 0.135 µg/mL (≈ 0.342 µM).
Turning to `CC1Cc2nnc(-c3cccc(C(F)(F)F)c3)cc2C(OC(=O)COCC(=O)O)C1` (centres unmarked) [Compound No. 14, 5-(carboxymethoxyacetyl)oxy-7-methyl-3-(3-trifluoromethylphenyl)-5,6,7,8-tetrahydrocinnoline], the IC50 was 0.148 µg/mL (≈ 0.349 µM).
On to `CC1Cc2nnc(-c3cccc(C(F)(F)F)c3)cc2C(OC(=O)COCC(=O)NCCN2CCOCC2)C1` (centres unmarked) [Compound No. 15, 5-[(2-(morpholin-4-yl)ethyl)aminocarbonylmethoxyacetyl]oxy-7-methyl-3-(3-trifluoromethylphenyl)-5,6,7,8-tetrahydrocinnoline], for which the IC50 was determined as 0.171 µg/mL (≈ 0.319 µM).
With `CC1Cc2nnc(-c3cccc(C(F)(F)F)c3)cc2C(OC(=O)COCC(=O)NCc2cccnc2)C1` (centres unmarked) [Compound No. 16, 5-[(pyridin-3-ylmethyl)aminocarbonylmethoxyacetyl]oxy-7-methyl-3-(3-trifluoromethyl-phenyl)-5,6,7,8-tetrahydrocinnoline], the IC50 is 0.166 µg/mL (≈ 0.323 µM).
Turning to `CC1Cc2nnc(-c3cccc(C(F)(F)F)c3)cc2C(OC(=O)COCC(=O)NCc2ccncc2)C1` (centres unmarked) [Compound No. 17, 5-[(pyridin-4-ylmethyl)aminocarbonylmethoxyacetyl]oxy-7-methyl-3-(3-trifluoromethyl-phenyl)-5,6,7,8-tetrahydrocinnoline], the IC50 came out at 0.139 µg/mL (≈ 0.27 µM).
For `CC1Cc2nnc(-c3cccc(C(F)(F)F)c3)cc2C(OC(=O)CCC(=O)O)C1` (centres unmarked) [Compound No. 18, 5-(3-carboxypropanoyl)oxy-7-methyl-3-(3-trifluoromethylphenyl)-5,6,7,8-tetrahydrocinnoline], the IC50 turned out to be 0.981 µg/mL (≈ 2.4 µM).
Consider `CC1Cc2nnc(-c3cccc(C(F)(F)F)c3)cc2C(OC(=O)CCCC(=O)O)C1` (centres unmarked) [Compound No. 19, 5-(4-carboxybutanoyl)oxy-7-methyl-3-(3-trifluoromethylphenyl)-5,6,7,8-tetrahydrocinnoline], for which the IC50 came to 0.908 µg/mL (≈ 2.15 µM).
With `CC1Cc2nnc(-c3cccc(C(F)(F)F)c3)cc2C(OC(=O)CC(O)C(=O)O)C1` (centres unmarked) [Compound No. 20, 5-[(3-carboxy-3-hydroxy)propanoyl]oxy-7-methyl-3-(3-trifluoromethylphenyl)-5,6,7,8-tetrahydrocinnoline], the “IC50 value (50% cytostatic concentration)” value was found to be 1.339 µg/mL (≈ 3.16 µM).
As for `CC1Cc2nnc(-c3cccc(C(F)(F)F)c3)cc2C(OC(=O)CCCN(C)C)C1` (centres unmarked) [Compound No. 21, 5-(4-dimethylaminobutanoyl)oxy-7-methyl-3-(3-trifluoromethylphenyl)-5,6,7,8-tetrahydro-cinnoline], the IC50 was found to be 0.129 µg/mL (≈ 0.306 µM).
For the compound `CC1Cc2nnc(-c3cccc(C(F)(F)F)c3)cc2C(OC(=O)CCC(=O)NCCN2CCOCC2)C1` (centres unmarked) [Compound No. 23, 5-[3-[2-(morpholin-4-yl)ethyl]amino-carbonylpropanoyl]oxy-7-methyl-3-(3-trifluoromethylphenyl)-5,6,7,8-tetrahydrocinnoline], the IC50 was 0.128 µg/mL (≈ 0.246 µM).
Regarding `CC1Cc2nnc(-c3cccc(C(F)(F)F)c3)cc2C(OC(=O)CCC(=O)NCc2cccnc2)C1` (centres unmarked) [Compound No. 24, 5-[3-(pyridin-3-ylmethyl)aminocarbonylpropanoyl]oxy-7-methyl-3-(3-trifluoromethylphenyl)-5,6,7,8-tetrahydrocinnoline], the IC50 came out at 0.098 µg/mL (≈ 0.197 µM).
Consider `CC1Cc2nnc(-c3cccc(C(F)(F)F)c3)cc2C(OC(=O)CCC(=O)NCc2ccncc2)C1` (centres unmarked) [Compound No. 25, 5-[3-(pyridin-4-ylmethyl)aminocarbonylpropanoyl]oxy-7-methyl-3-(3-trifluoromethylphenyl)-5,6,7,8-tetrahydrocinnoline], for which the IC50 is 0.144 µg/mL (≈ 0.289 µM).
Still for that read-out and setting: next, `COC(=O)CCC(=O)OC1CC(C)Cc2nnc(-c3cccc(C(F)(F)F)c3)cc21` (centres unmarked) [Compound No. 26, 5-(3-methoxycarbonylpropanoyl)oxy-7-methyl-3-(3-trifluoromethylphenyl)-5,6,7,8-tetrahydro-cinnoline]: 1.18 µg/mL (≈ 2.79 µM); `CCOC(=O)CCC(=O)OC1CC(C)Cc2nnc(-c3cccc(C(F)(F)F)c3)cc21` (centres unmarked) [Compound No. 27, 5-(3-ethoxycarbonylpropanoyl)oxy-7-methyl-3-(3-trifluoromethylphenyl)-5,6,7,8-tetrahydro-cinnoline]: 0.736 µg/mL (≈ 1.69 µM).
As for `COCCOC(=O)OC1CC(C)Cc2nnc(-c3cccc(C(F)(F)F)c3)cc21` (centres unmarked) [Compound No. 38, 5-(2-methoxyethoxycarbonyl)oxy-7-methyl-3-(3-trifluoromethylphenyl)-5,6,7,8-tetrahydro-cinnoline], the IC50 amounted to 0.649 µg/mL (≈ 1.58 µM).
For `CC1Cc2nnc(-c3cccc(C(F)(F)F)c3)cc2C(OC(=O)OCCN2CCOCC2)C1` (centres unmarked) [Compound No. 39, 5-(2-(morpholino-4-yl)ethoxycarbonyl)oxy-7-methyl-3-(3-trifluoromethylphenyl)-5,6,7,8-tetrahydrocinnoline], the “IC50 value (50% cytostatic concentration)” value turned out to be 0.152 µg/mL (≈ 0.327 µM).
In the case of `CC1Cc2nnc(-c3cccc(C(F)(F)F)c3)cc2C(OC(=O)N2CCOCC2)C1.Cl` (centres unmarked) [Compound No. 43, 7-methyl-5-(morpholin-4-yl-carbonyl)oxy-3-(3-trifluoromethylphenyl)-5,6,7,8-tetrahydrocinnoline hydrochloride], the IC50 turned out to be 4.34 µg/mL.

For the origin of these results see patent publication US20080039468A1, “Novel 3-Phenyltetrahydrocinnolin-5-Ol Derivative and Medicinal Use Thereof” (priority 2004, published 2008).
